Test results: PubChem BioAssay AID248 (DTP/NCI, 2004)
Values joined by “and” are separate entries in the source; they are usually repeats but may differ in a detail not shown here. Identical values can stand only once. Toxic doses and inconclusive results are not listed. Rule as the data show it: active = T/C of 150% or more; inactive = T/C below 125%.

Tested on: L1210 leukemia ip in BDF1 mice, survival T/C
Experiment: NCI In Vivo Anticancer Drug Screen. Data for tumor model L1210 Leukemia (intraperitoneal) in B6D2F1 (BDF1) mice
Conditions: endpoint: mean survival time, higher = longer survival
Summary of the method: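 Antitumor effect is assessed in tumor-bearing animals. Survival in the compound arm is compared with a vehicle-dosed control arm and expressed as their quotient.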

[1] = dose: 100.0 mg/kg/injection, schedule: Q04DX003 (ip), vehicle: saline with Tween-80
[2] = dose: 200.0 mg/kg/injection, schedule: Q04DX003 (ip), vehicle: saline with Tween-80
[3] = dose: 100.0 mg/kg/injection, schedule: Q04DX002 (ip), vehicle: Klucel (hydroxypropylcellulose) (HPC)
[4] = dose: 200.0 mg/kg/injection, schedule: Q04DX002 (ip), vehicle: Klucel (hydroxypropylcellulose) (HPC)
[5] = dose: 400.0 mg/kg/injection, schedule: Q04DX002 (ip), vehicle: Klucel (hydroxypropylcellulose) (HPC)
[6] = dose: 100.0 mg/kg/injection, schedule: Q04DX003 (ip), vehicle: Klucel (hydroxypropylcellulose) (HPC)
[7] = dose: 200.0 mg/kg/injection, schedule: Q04DX003 (ip), vehicle: Klucel (hydroxypropylcellulose) (HPC)
[8] = dose: 100.0 mg/kg/injection, schedule: Q01DX009 (ip), vehicle: saline with Tween-80
[9] = dose: 200.0 mg/kg/injection, schedule: Q01DX009 (ip), vehicle: saline with Tween-80
[10] = dose: 400.0 mg/kg/injection, schedule: Q01DX009 (ip), vehicle: saline with Tween-80
[11] = dose: 100.0 mg/kg/injection, schedule: Q04DX002 (ip), vehicle: saline with Tween-80
[12] = dose: 200.0 mg/kg/injection, schedule: Q04DX002 (ip), vehicle: saline with Tween-80
[13] = dose: 400.0 mg/kg/injection, schedule: Q04DX002 (ip), vehicle: saline with Tween-80

Measured: T/C

O=C(Nc1ccc(F)cc1)Oc1ccc(OCc2ccccc2)cc1
inactive: dose: 100.0 mg/kg/injection, schedule: Q01DX001 (ip), vehicle: carboxymethylcellulose (CMC) 95 % of control | dose: 100.0 mg/kg/injection, schedule: Q01DX009 (ip), vehicle: carboxymethylcellulose (CMC) 99 % of control and 103 % of control | dose: 100.0 mg/kg/injection, schedule: Q04DX002 (ip), vehicle: carboxymethylcellulose (CMC) 93 % of control and 98 % of control | dose: 200.0 mg/kg/injection, schedule: Q01DX001 (ip), vehicle: carboxymethylcellulose (CMC) 101 % of control | dose: 200.0 mg/kg/injection, schedule: Q01DX009 (ip), vehicle: carboxymethylcellulose (CMC) 95 % of control and 99 % of control | dose: 200.0 mg/kg/injection, schedule: Q04DX002 (ip), vehicle: carboxymethylcellulose (CMC) 98 % of control and 100 % of control | dose: 400.0 mg/kg/injection, schedule: Q01DX001 (ip), vehicle: carboxymethylcellulose (CMC) 101 % of control | dose: 400.0 mg/kg/injection, schedule: Q01DX009 (ip), vehicle: carboxymethylcellulose (CMC) 95 % of control and 91 % of control | dose: 400.0 mg/kg/injection, schedule: Q04DX002 (ip), vehicle: carboxymethylcellulose (CMC) 96 % of control and 100 % of control

CN(Cc1c(S)ccc2ccccc12)Cc1c(S)ccc2ccccc12
inactive: dose: 100.0 mg/kg/injection, schedule: Q01DX001 (ip), vehicle: saline 94 % of control | dose: 200.0 mg/kg/injection, schedule: Q01DX001 (ip), vehicle: saline 98 % of control | dose: 400.0 mg/kg/injection, schedule: Q01DX001 (ip), vehicle: saline 96 % of control

CCCCC1=C(C)C(=O)OC1=O
inactive: [1] 95 % of control | [2] 95 % of control | dose: 400.0 mg/kg/injection, schedule: Q04DX003 (ip), vehicle: saline with Tween-80 103 % of control

CCCCCCCC/C=C\CCCCCCCC(=O)OCCCCCCCCCCCCCCCCC
inactive: dose: 75.0 mg/kg/injection, schedule: Q01DX009 (ip), vehicle: saline sonified 106 % of control | dose: 100.0 mg/kg/injection, schedule: Q01DX009 (ip), vehicle: Klucel (hydroxypropylcellulose) (HPC) 94 % of control | dose: 150.0 mg/kg/injection, schedule: Q01DX009 (ip), vehicle: saline sonified 104 % of control | dose: 200.0 mg/kg/injection, schedule: Q01DX009 (ip), vehicle: Klucel (hydroxypropylcellulose) (HPC) 91 % of control | dose: 300.0 mg/kg/injection, schedule: Q01DX009 (ip), vehicle: saline sonified 96 % of control | dose: 400.0 mg/kg/injection, schedule: Q01DX009 (ip), vehicle: Klucel (hydroxypropylcellulose) (HPC) 110 % of control

Nc1ncc(-c2ccc(Br)cc2)s1
inactive: dose: 12.5 mg/kg/injection, schedule: Q01DX005 (ip), vehicle: Klucel (hydroxypropylcellulose) (HPC) 100 % of control | dose: 12.5 mg/kg/injection, schedule: Q01DX009 (ip), vehicle: Klucel (hydroxypropylcellulose) (HPC) 105 % of control | dose: 25.0 mg/kg/injection, schedule: Q01DX005 (ip), vehicle: Klucel (hydroxypropylcellulose) (HPC) 107 % of control | dose: 25.0 mg/kg/injection, schedule: Q01DX009 (ip), vehicle: Klucel (hydroxypropylcellulose) (HPC) 97 % of control | dose: 50.0 mg/kg/injection, schedule: Q01DX005 (ip), vehicle: Klucel (hydroxypropylcellulose) (HPC) 91 % of control | dose: 50.0 mg/kg/injection, schedule: Q01DX009 (ip), vehicle: Klucel (hydroxypropylcellulose) (HPC) 97 % of control | dose: 75.0 mg/kg/injection, schedule: Q01DX009 (ip), vehicle: Klucel (hydroxypropylcellulose) (HPC) 97 % of control | [3] 102 % of control | dose: 115.0 mg/kg/injection, schedule: Q01DX009 (ip), vehicle: Klucel (hydroxypropylcellulose) (HPC) 92 % of control | dose: 170.0 mg/kg/injection, schedule: Q01DX009 (ip), vehicle: Klucel (hydroxypropylcellulose) (HPC) 116 % of control | [4] 102 % of control | [5] 88 % of control

O=C(Nc1ccc(Cl)c(Cl)c1)OCC#CCOC(=O)Nc1ccc(Cl)c(Cl)c1
inactive: dose: 100.0 mg/kg/injection, schedule: Q01DX009 (ip), vehicle: saline 99 % of control | dose: 200.0 mg/kg/injection, schedule: Q01DX009 (ip), vehicle: saline 91 % of control | dose: 400.0 mg/kg/injection, schedule: Q01DX009 (ip), vehicle: saline 88 % of control

O=C(O)C1C2OC(C(Br)C2Br)C1C(=O)O (stereo not given)
inactive: [3] 106 % of control | [1] 93 % of control | [4] 98 % of control | [2] 95 % of control | [5] 95 % of control

CCCCCCCCCCS(=O)(=O)CC(=O)O
inactive: [6] 100 % of control | [1] 100 % of control | [7] 90 % of control | [2] 98 % of control

Cc1ccc(N)cc1S(=O)(=O)F
inactive: dose: 75.0 mg/kg/injection, schedule: Q01DX001 (ip), vehicle: saline 107 % of control | dose: 150.0 mg/kg/injection, schedule: Q01DX001 (ip), vehicle: saline 98 % of control | dose: 300.0 mg/kg/injection, schedule: Q01DX001 (ip), vehicle: saline 103 % of control

Nc1ccc(CC(=O)O)c(N)c1
inactive: [3] 87 % of control | [4] 97 % of control | [5] 97 % of control

O=C(O)C1CCC(CC2CC3CCC2C3)CC1 (stereo not given)
inactive: [8] 90 % of control | [9] 96 % of control

O=C1OC(c2ccc(Cl)cc2)=N/C1=C\c1ccc(Cl)cc1
inactive: [8] 91 % of control | [9] 94 % of control | [10] 91 % of control

CCOC(=O)C1C2OC(=O)C(C(=O)C2C(C2CC=CCC2)N(CCCl)CCCl)C1c1ccc(OC(C)=O)cc1 (stereo not given)
inactive: [6] 101 % of control | [7] 97 % of control | dose: 400.0 mg/kg/injection, schedule: Q04DX003 (ip), vehicle: Klucel (hydroxypropylcellulose) (HPC) 98 % of control

O=C(CSc1cc(-c2ccc(Cl)cc2)s[s+]1)c1ccc(Cl)cc1
inactive: dose: 100.0 mg/kg/injection, schedule: Q04DX003 (ip), vehicle: saline 102 % of control | dose: 200.0 mg/kg/injection, schedule: Q04DX003 (ip), vehicle: saline 98 % of control | dose: 400.0 mg/kg/injection, schedule: Q04DX003 (ip), vehicle: saline 98 % of control

O=C1c2ccccc2C(=O)N1CCCCCN1C(=O)c2ccccc2C1=O
inactive: dose: 100.0 mg/kg/injection, schedule: Q01DX001 (ip), vehicle: saline with Tween-80 102 % of control | [11] 104 % of control | dose: 200.0 mg/kg/injection, schedule: Q01DX001 (ip), vehicle: saline with Tween-80 96 % of control | [12] 96 % of control | dose: 400.0 mg/kg/injection, schedule: Q01DX001 (ip), vehicle: saline with Tween-80 98 % of control | [13] 101 % of control

C=C(OCC)P(=O)(OCCCC)OCCCC
inactive: [11] 100 % of control | [12] 90 % of control | [13] 93 % of control

COc1cccc(CC2=C3CCCN(C(=O)c4ccccc4)C3CCC2=O)c1 (stereo not given)
inactive: dose: 100.0 mg/kg/injection, schedule: Q01DX009 (ip), vehicle: saline sonified 98 % of control | dose: 200.0 mg/kg/injection, schedule: Q01DX009 (ip), vehicle: saline sonified 96 % of control | dose: 400.0 mg/kg/injection, schedule: Q01DX009 (ip), vehicle: saline sonified 96 % of control

CC(C)CNC(=S)Nc1ccccc1
inactive: dose: 75.0 mg/kg/injection, schedule: Q01DX001 (ip), vehicle: other 98 % of control | dose: 150.0 mg/kg/injection, schedule: Q01DX001 (ip), vehicle: other 98 % of control | dose: 300.0 mg/kg/injection, schedule: Q01DX001 (ip), vehicle: other 102 % of control

CCOC(=O)CNC(=O)NCc1ccccc1
inactive: [8] 106 % of control | [9] 102 % of control | [10] 105 % of control
